In ChEMBL document CHEMBL1151193, “Ancistrotanzanine C and related 5,1'- and 7,3'-coupled naphthylisoquinoline alkaloids from Ancistrocladus tanzaniensis” (J Nat Prod, 2004):
Converted amounts (≈) assume the structure as drawn.

Key:
[1] = system: Trypanosoma brucei rhodesiense; experiment: Antitrypanosomal activity against Trypanosoma brucei rhodesiense; assay type: functional, organism-based
Plasmodium falciparum [2] = experiment: Antiplasmodial activity against chloroquine-sensitive Plasmodium falciparum 3D7; assay type: functional, organism-based
Plasmodium falciparum [3] = experiment: Antiplasmodial activity against chloroquine-resistant Plasmodium falciparum K1; assay type: functional, organism-based
[4] = Cytotoxicity against rat L6 cells; assay type: cell-based; conditions: read-out: MIC
Trypanosoma cruzi = experiment: Antitrypanosomal activity against Trypanosoma cruzi; assay type: functional, organism-based
L6 = experiment: Cytotoxicity against Leishmania donovani infected rat L6 cells; assay type: cell-based
Leishmania donovani = experiment: Antileishmanial activity against Leishmania donovani; assay type: functional, organism-based

Row | SMILES | IC50 [1] [µg/mL] | IC50 (Plasmodium falciparum [2]) [µg/mL] | IC50 (Plasmodium falciparum [3]) [µg/mL] | MCC [4] [µg/mL] | IC50 (Trypanosoma cruzi) [µg/mL] | Activity (L6) | IC50 (Leishmania donovani) [µg/mL]
1 | Nc1nc(N)nc(Nc2ccc([As]3SCC(CO)S3)cc2)n1 (configuration not stated) [MELARSOPROL] | 0.0031 | – | – | – | – | – | –
2 | COc1cc2c(c(OC)c1-c1c(C)cc3cccc(OC)c3c1O)[C@@H](C)N(C)[C@@H](C)C2 [ANCISTROTECTORINE] | 4.3 (≈ 10.2 µM) | 9.1 (≈ 21.6 µM) | 0.7 (≈ 1.66 µM) | 19.9 | 4.3 (≈ 10.2 µM) | Toxic | –
3 | O=C(Cn1ccnc1[N+](=O)[O-])NCc1ccccc1 [BENZNIDAZOLE] | – | – | – | – | 0.29 (≈ 1.11 µM) | – | –
4 | COc1cc(OC)c(-c2c(C)cc(OC)c3c(OC)cccc23)c2c1C(C)=N[C@@H](C)C2 | 5.2 (≈ 12.4 µM) | 5.4 (≈ 12.9 µM) | 2.2 (≈ 5.24 µM) | > 90 | 60.5 (≈ 144 µM) | – | 30 (≈ 71.5 µM)
5 | COc1c(-c2c(C)cc3cccc(OC)c3c2O)c(O)cc2c1[C@@H](C)N(C)[C@@H](C)C2 [ANCISTROTANZANINE C] | 1.3 (≈ 3.19 µM) | 4.2 (≈ 10.3 µM) | 0.1 (≈ 0.245 µM) | 40.7 | 14 (≈ 34.4 µM) | Toxic | –
6 | COc1cc(OC)c2c(c1-c1c(C)cc(OC)c3c(OC)cccc13)C[C@H](C)N(C)[C@H]2C [O,N-Dimethylancistrocladine] | 5.4 (≈ 12.4 µM) | 34.1 (≈ 78.3 µM) | 3.6 (≈ 8.27 µM) | 42.9 | 65.3 (≈ 150 µM) | Toxic | –
7 | COc1cc2c(c(OC)c1-c1c(C)cc3cccc(OC)c3c1O)C(C)=N[C@@H](C)C2 [ANCISTROCLADIDINE] | 2 (≈ 4.93 µM) | 1.9 (≈ 4.69 µM) | 0.3 (≈ 0.74 µM) | 28.3 | 23.4 (≈ 57.7 µM) | – | 2.9 (≈ 7.15 µM)
